Key:
[1] = target: T1, Human Tryptophan 2,3-dioxygenase (TDO) (Homo sapiens, UniProt P48775); assay: Human TDO enzymatic assay (kynurenine level); assay type: biochemical; settings: 1 nM TDO, 350 μM L-Trp; geometric mean; read-out: TDO GMean: IC50 (μM) (Biochemical Assay)
T1 construct: His tag (N); made in house; host or cells: E. coli
Outline: (§1)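 Reactions were stopped with TCA, converting N-formylkynurenine to kynurenine for quantitation, with IC50 by nonlinear regression. IDO: 6 nM enzyme, 10 μM L-Trp, 20 min RT. TDO: 1 nM enzyme, 350 μM L-Trp, 70 min RT, both in pH 6.5 buffer.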

[2] = target: T2, Human Indoleamine 2,3-dioxygenase (IDO) (Homo sapiens, UniProt P14902); assay: Human IDO enzymatic assay (kynurenine level); assay type: biochemical; settings: 6 nM IDO, 10 μM L-Trp; geometric mean; read-out: IDO1 GMean: IC50 (μM) (Biochemical Assay)
T2 construct: His tag (N); made in house; host or cells: E. coli
Outline: as §1

[3] = target: T3, human IDO (IDO1-expressing HEK293 cells) (Homo sapiens, UniProt P14902); assay: Cell based kynurenine assay, IDO1-expressing HEK293 cell clones; settings: IDO1-expressing HEK293 cells, 24 hours incubation; geometric mean; read-out: HEK293 IDO1 Kynurenine GMean IC50 (μM) (Cellular Assay)
T3 construct: expressed in transfected cells
Outline: (§2)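 Steps: seed IDO1- or TDO-expressing HEK293 cells at 2.5×10^4 per well; add compound dilutions; incubate 24 h; transfer supernatant and determine kynurenine; derive IC50 via nonlinear regression of percent inhibition.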

[4] = target: T4, human TDO (TDO-expressing HEK293 cells) (Homo sapiens, UniProt P48775); assay: Cell based kynurenine assay, TDO-expressing HEK293 cell clones; settings: TDO-expressing HEK293 cells, 24 hours incubation; geometric mean; read-out: HEK293 TDO Kynurenine GMean IC50 (μM) (Cellular Assay)
T4 construct: expressed in transfected cells
Outline: as §2

T4 sequence (P48775 whole entry): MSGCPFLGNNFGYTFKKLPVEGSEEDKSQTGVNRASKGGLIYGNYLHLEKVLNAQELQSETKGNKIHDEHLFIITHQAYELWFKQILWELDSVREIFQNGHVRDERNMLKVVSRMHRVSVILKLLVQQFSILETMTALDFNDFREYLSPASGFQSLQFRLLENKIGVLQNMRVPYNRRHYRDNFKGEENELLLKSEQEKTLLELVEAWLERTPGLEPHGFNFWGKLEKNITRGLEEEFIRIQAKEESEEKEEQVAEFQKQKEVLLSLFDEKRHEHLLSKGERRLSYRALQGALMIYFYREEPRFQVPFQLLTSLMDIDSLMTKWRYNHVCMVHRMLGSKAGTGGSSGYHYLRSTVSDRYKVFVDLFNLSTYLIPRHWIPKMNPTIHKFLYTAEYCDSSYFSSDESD
T1 sequence (P48775 whole entry): as above
T2 sequence (P14902 whole entry): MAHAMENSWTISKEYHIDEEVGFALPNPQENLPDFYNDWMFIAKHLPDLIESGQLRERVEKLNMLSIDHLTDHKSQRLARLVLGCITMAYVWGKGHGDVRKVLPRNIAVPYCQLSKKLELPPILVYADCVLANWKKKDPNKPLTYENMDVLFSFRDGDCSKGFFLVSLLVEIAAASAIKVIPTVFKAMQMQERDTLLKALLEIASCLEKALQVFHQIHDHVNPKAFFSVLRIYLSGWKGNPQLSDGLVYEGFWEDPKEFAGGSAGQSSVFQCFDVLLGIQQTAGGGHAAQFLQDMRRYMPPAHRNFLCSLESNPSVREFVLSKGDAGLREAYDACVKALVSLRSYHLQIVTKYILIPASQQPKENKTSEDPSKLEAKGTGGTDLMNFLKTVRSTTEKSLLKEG
T3 sequence (P14902 whole entry): as above

Compound	IC50 [1]	IC50 [2]	IC50 [3]	IC50 [4]
OC1(c2cc(Cl)cc3[nH]ncc23)CC2(CCCCC2)C1 [Compound P-0371, 2-(6-chloro-1H-indazol-4-yl)spiro[3.5] nonan-2-ol]	0.0001 to 10 µM	10 to 100 µM	> 10 µM	0.0001 to 10 µM
OC1(c2cc(Cl)cc3[nH]ncc23)CC2(CCOCC2)C1 [Compound P-0372, 2-(6-chloro-1H-indazol-4-yl)-7-oxaspiro[3.5] nonan-2-ol]	0.0001 to 10 µM	> 200 µM	0.0001 to 10 µM	> 10 µM
CCC(=O)N1CCC(C(F)(F)C(O)c2c(F)c(Cl)cc3cn[nH]c23)CC1 (stereo not drawn) [Compound P-0374, 1-(4-(2-(5-chloro-6-fluoro-1H-indazol-7-yl)-1,1-difluoro-2-hydroxyethyl)piperidin-1-yl) propan-1-one]	0.0001 to 10 µM	0.0001 to 10 µM	0.0001 to 10 µM	0.0001 to 10 µM
CC(C)CC(=O)N1CCC(C(F)(F)C(O)c2c(F)c(Cl)cc3cn[nH]c23)CC1 (stereo not drawn) [Compound P-0375, 1-(4-(2-(5-chloro-6-fluoro-1H-indazol-7-yl)-1,1-difluoro-2-hydroxyethyl)piperidin-1-yl)-3-methylbutan-1-one]	0.0001 to 10 µM	0.0001 to 10 µM	0.0001 to 10 µM	0.0001 to 10 µM
COCC(=O)N1CCC(C(F)(F)C(O)c2c(F)c(Cl)cc3cn[nH]c23)CC1 (stereo not drawn) [Compound P-0376, 1-(4-(2-(5-chloro-6-fluoro-1H-indazol-7-yl)-1,1-difluoro-2-hydroxyethyl)piperidin-1-yl)-2-methoxyethan-1-one]	0.0001 to 10 µM	0.0001 to 10 µM	0.0001 to 10 µM	0.0001 to 10 µM
CC(C)C(=O)N1CCC(C(F)(F)C(O)c2c(F)c(Cl)cc3cn[nH]c23)CC1 (stereo not drawn) [Compound P-0377, 1-(4-(2-(5-chloro-6-fluoro-1H-indazol-7-yl)-1,1-difluoro-2-hydroxyethyl)piperidin-1-yl)-2-methylpropan-1-one]	0.0001 to 10 µM	0.0001 to 10 µM	0.0001 to 10 µM	0.0001 to 10 µM
O=C(NCC(F)(F)F)N1CCC(C(F)(F)C(O)c2c(F)c(Cl)cc3cn[nH]c23)CC1 (stereo not drawn) [Compound P-0378, 4-(2-(5-chloro-6-fluoro-1H-indazol-7-yl)-1,1-difluoro-2-hydroxyethyl)-N-(2,2,2-trifluoroethyl) piperidine-1-carboxamide]	0.0001 to 10 µM	0.0001 to 10 µM	0.0001 to 10 µM	0.0001 to 10 µM
NC(=O)N1CCC(C(F)(F)C(O)c2c(F)c(Cl)cc3cn[nH]c23)CC1 (stereo not drawn) [Compound P-0379, 4-(2-(5-chloro-6-fluoro-1H-indazol-7-yl)-1,1-difluoro-2-hydroxyethyl) piperidine-1-carboxamide]	0.0001 to 10 µM	0.0001 to 10 µM	0.0001 to 10 µM	0.0001 to 10 µM
OC1(c2cc(Cl)cc3cn[nH]c23)C2CC3CC(C2)CC1C3 [Compound P-0380, (1R,2R,5S)-2-(5-chloro-1H-indazol-7-yl)adamantan-2-ol]	0.0001 to 10 µM	0.0001 to 10 µM	> 10 µM	0.0001 to 10 µM
O[C@H](c1cc(Cl)cc2cn[nH]c12)C12CCC(CC1)CC2 [Compound P-0381, (S)-bicyclo[2.2.2] octan-1-yl(5-chloro-1H-indazol-7-yl)methanol]	0.0001 to 10 µM	0.0001 to 10 µM	0.0001 to 10 µM	0.0001 to 10 µM
O[C@@H](c1cc(Cl)cc2cn[nH]c12)C12CCC(CC1)CC2 [Compound P-0382, (R)-bicyclo[2.2.2] octan-1-yl(5-chloro-1H-indazol-7-yl)methanol]	> 200 µM	0.0001 to 10 µM	0.0001 to 10 µM	> 10 µM

The next lines start with the values.

IC50 [1]	IC50 [2]	IC50 [3]	IC50 [4]	Compound
0.0001 to 10 µM	0.0001 to 10 µM	0.0001 to 10 µM	0.0001 to 10 µM	CC(C)(C1CCN(C(=O)c2ccccc2F)CC1)C(O)c1cc(Cl)cc2cn[nH]c12 (stereo not drawn) [Compound P-0364, (4-(1-(5-chloro-1H-indazol-7-yl)-1-hydroxy-2-methylpropan-2-yl)piperidin-1-yl)(2-fluorophenyl) methanone]
0.0001 to 10 µM	0.0001 to 10 µM	0.0001 to 10 µM	0.0001 to 10 µM	CC(C)(C1CCN(C(=O)c2ccccn2)CC1)C(O)c1cc(Cl)cc2cn[nH]c12 (stereo not drawn) [Compound P-0365, (4-(1-(5-chloro-1H-indazol-7-yl)-1-hydroxy-2-methylpropan-2-yl)piperidin-1-yl)(pyridin-2-yl)methanone]
0.0001 to 10 µM	0.0001 to 10 µM	0.0001 to 10 µM	0.0001 to 10 µM	CC(C)(C1CCN(C(=O)c2ccccc2C(F)(F)F)CC1)C(O)c1cc(Cl)cc2cn[nH]c12 (stereo not drawn) [Compound P-0366, (4-(1-(5-chloro-1H-indazol-7-yl)-1-hydroxy-2-methylpropan-2-yl)piperidin-1-yl)(2-(trifluoromethyl)phenyl)methanone]
0.0001 to 10 µM	0.0001 to 10 µM	0.0001 to 10 µM	0.0001 to 10 µM	CC(C)(C1CCN(C(=O)c2ccc(N3CCOCC3)nc2)CC1)C(O)c1cc(Cl)cc2cn[nH]c12 (stereo not drawn) [Compound P-0367, (4-(1-(5-chloro-1H-indazol-7-yl)-1-hydroxy-2-methylpropan-2-yl)piperidin-1-yl)(6-morpholinopyridin-3-yl)methanone]
0.0001 to 10 µM	0.0001 to 10 µM	0.0001 to 10 µM	0.0001 to 10 µM	CC(C)(C1CCN(C(=O)c2ccccc2Cl)CC1)C(O)c1cc(Cl)cc2cn[nH]c12 (stereo not drawn) [Compound P-0368, (4-(1-(5-chloro-1H-indazol-7-yl)-1-hydroxy-2-methylpropan-2-yl)piperidin-1-yl)(2-chlorophenyl) methanone]
0.0001 to 10 µM	0.0001 to 10 µM	0.0001 to 10 µM	0.0001 to 10 µM	CC(C)(C1CCN(C(=O)c2c(F)cccc2Cl)CC1)C(O)c1cc(Cl)cc2cn[nH]c12 (stereo not drawn) [Compound P-0369, (4-(1-(5-chloro-1H-indazol-7-yl)-1-hydroxy-2-methylpropan-2-yl)piperidin-1-yl)(2-chloro-6-fluorophenyl) methanone]
0.0001 to 10 µM	0.0001 to 10 µM	0.0001 to 10 µM	0.0001 to 10 µM	CC(C)(C)OC(=O)N1CCC(C(C)(C)C(O)c2c(F)c(Cl)cc3cn[nH]c23)CC1 (stereo not drawn) [Compound P-0370, tert-butyl 4-(1-(5-chloro-6-fluoro-1H-indazol-7-yl)-1-hydroxy-2-methylpropan-2-yl)piperidine-1-carboxylate]
0.0001 to 10 µM	0.0001 to 10 µM	0.0001 to 10 µM	0.0001 to 10 µM	C[C@@H](NC(=O)N1CCC(C(C)(C)C(O)c2cc(Cl)cc3cn[nH]c23)CC1)c1ccccc1 (stereo partly drawn) [Compound P-0373, 4-(1-(5-chloro-1H-indazol-7-yl)-1-hydroxy-2-methylpropan-2-yl)-N-((R)-1-phenylethyl) piperidine-1-carboxamide]
0.0001 to 10 µM	0.0001 to 10 µM	0.0001 to 10 µM	0.0001 to 10 µM	CC(C)(C)OC(=O)N1CCC(C(C)(C)[C@H](O)c2c(F)c(Cl)cc3cn[nH]c23)CC1 [Compound P-0383, tert-butyl (S)-4-(1-(5-chloro-6-fluoro-1H-indazol-7-yl)-1-hydroxy-2-methylpropan-2-yl)piperidine-1-carboxylate]
0.0001 to 10 µM	0.0001 to 10 µM	> 10 µM	> 10 µM	CC(C)(C)OC(=O)N1CCC(C(C)(C)[C@@H](O)c2c(F)c(Cl)cc3cn[nH]c23)CC1 [Compound P-0384, tert-butyl (R)-4-(1-(5-chloro-6-fluoro-1H-indazol-7-yl)-1-hydroxy-2-methylpropan-2-yl)piperidine-1-carboxylate]

Reference: US10508085B2, “Compounds and methods for IDO and TDO modulation, and indications therefor” (Plexxikon Inc., priority 2016, dated 2019)
